From ChEMBL document CHEMBL1151713, “S-alkenyl cysteine sulfoxide and its antioxidant properties from Allium cepa var. tropeana (red onion) seeds” (J Nat Prod, 2008) come the findings set out here.

A short description of test [1]: Antioxidant activity by ferric reducing antioxidant power assay. It counts as functional.
The subject of test [2] is Radical scavenging activity. As to the kind of experiment: Antioxidant activity assessed as DPPH radical scavenging activity by Brand-Williams method. The test is classed as functional. (Loss of DPPH colour is used to gauge radical scavenging.)

Consider `C/C=C/CC[S+]([O-])C[C@@H](N)C(=O)O` (stereo partly specified), for which the Activity is 178 µM in test [1] and 107 µM in test [2].

For the compound `O=C1O[C@H]([C@@H](O)CO)C(O)=C1O`, the Activity in test [1] stood at 824 µM; in test [2] it was 903 µM.

Turning to `Cc1cc(C(C)(C)C)c(O)c(C(C)(C)C)c1`, the Activity was determined as 677 µM in test [1] and 637 µM in test [2].
